Results on two compounds are retold here after patent US20180127700A1, “Cell Culture Substrate for Rapid Release and Re-Plating” (priority 2015, published 2018).

For this assay, the system named is NIH/3T3 mouse embryonic fibroblast cells. Description: Tissue module release/detachment from shape-memory pNIPAAm polymer microbeams upon thermally initiated swelling. The note with it: for effect of treatment on tissue module detachment (in words): all strains tested, pNIPAAm microbeams. On the set-up: tissue module detachment after microbeam swelling (in words): dose or concentration left out as unconfirmed. It is filed as cell-based. The protocol:
NIH/3T3 mouse embryonic fibroblast cells were cultured in 10% NCS growth medium containing 1% antibiotics (10,000 units/ml penicillin and 10,000 μg/ml streptomycin stock solution) at 37° C. in a humidified atmosphere of 5% CO2. To prepare tissue modules, trypsinized fibroblasts were seeded onto the fabricated shape-memory polymer arrays at a density of 500-750 cells/mm^2 and cultured at 37° C. until confluence (24-48 h). Studies of release from low cell density (100 cells/mm^2) were cultured for 24 h.
Rapid release of tissue modules was induced by thermally initiated swelling of the shape-memory polymer beams. 2 ml of cold PBS (4-10° C.) was introduced (1 ml at a time) into the seeded dish containing 2.5 ml of 37° C. medium resulting in cooling to about 27° C. Cell release was monitored via time-lapse image acquisition on a microscope for at least 70 s.
The mode of cell release from shape-memory polymer surfaces was examined by separately treating seeded samples with agents that modulate metabolism, contractility or adhesion.
To investigate the effect of surface strain on attached cells, the concentration of the network crosslinker (MBAm) in the prepolymer solution was varied from 1 to 4% before MIMIC processing. The one-dimensional width-wise strain in each microbeam was calculated from phase contrast micrographs as follows: […]
where ε is the Cauchy strain, Wcollapsed is the width of the polymer beam in the collapsed state and Wswollen is the width of the polymer beam in the swollen state. Cell detachment was calculated as the percent of cells released from the microbeams within 3 min after thermal stimulation.

Take `C[C@@H](N)[C@H]1CC[C@H](C(=O)Nc2ccncc2)CC1` [Y-27632]: the “effect of treatment on tissue module detachment (in words)” value is “prevented tissue module detachment”. Also, where the note is “Y-27632 for 30 min prior to release, large strains (ε>0.25)”, the “tissue module detachment after microbeam swelling (in words)” value is recorded as “primarily remained attached”.

Turning to `O=C(CCSSCCC(=O)ON1C(=O)CC(S(=O)(=O)O)C1=O)ON1C(=O)CC(S(=O)(=O)O)C1=O` (stereo not shown) [DTSSP, 3,3′-dithiobissulfosuccinimidylpropionate], the “effect of treatment on tissue module detachment (in words)” value was “prevented tissue module detachment”. Besides, where the note is “2 mM DTSSP for 30 min prior to release, within 5 min of initiating shape change”, the “cell release after initiating shape change (in words)” value is listed as “significant cell release was not observed”.
